Read-outs that look alike come from different tables or passages of the source.
Assays:
Assay type in all cases: in vivo
[1] = tested on: Echinochloa crus-galli (ECHCG); assay: Post-emergence herbicidal action against ECHCG
How it was run: (§1)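 Doses of 320 g/ha or lower, suffixes a, b and c marking different dosages, were applied post-emergence at the one-leaf stage in 600 l/ha water with 0.5% additive. Damage was assessed visually after about 3 weeks in the greenhouse.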

Oryza sativa (ORYSA) = details: crop plant compatibility
How it was run: (§2)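 Greenhouse crops in sandy loam sprayed post-emergence at the one-leaf stage, 2–3 weeks after sowing, with WP or EC formulations in water plus 0.5% additive at 600 l/ha. Damage rated visually about 3 weeks later versus untreated controls (0% = like control, 100% = dead); suffixes a–c denote different doses.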

Zea mays (ZEAMX) = details: for Post-emergence action against ZEAMX in % (crop plant compatibility): 20 g/ha, effect in comparison to untreated controls; for Post-emergence action against ZEAMX in %: crop plant compatibility, effect vs untreated controls
How it was run: as §2

Viola tricolor (VIOTR) = assay: Post-emergence herbicidal action against VIOTR
How it was run: as §1

[2] = tested on: Polygonum convolvulus (POLCO); assay: Post-emergence herbicidal action against POLCO
How it was run: as §1

[3] = tested on: Verconica persica (VERPE); assay: Post-emergence herbicidal action against VERPE
How it was run: as §1

Setaria viridis (SETVI) = assay: Post-emergence herbicidal action against SETVI
How it was run: as §1

[4] = tested on: Pharbitis purpurea (PHBPU); assay: Post-emergence herbicidal action against PHBPU
How it was run: as §1

[5] = tested on: Alopecurus myosuroides (ALOMY); assay: Post-emergence herbicidal action against ALOMY; details: visual rating about 3 weeks after treatment vs untreated controls (100% = plants have died, 0% = like control plants)
How it was run: as §1

Avena fatua (AVEFA) = assay: Post-emergence herbicidal action against AVEFA; details: visual rating about 3 weeks after treatment
How it was run: as §1

Lolium rigidum (LOLRI) = assay: Post-emergence herbicidal action against LOLRI
How it was run: as §1

[6] = tested on: Digitaria sanguinalis (DIGSA); assay: Post-emergence herbicidal action against DIGSA; details: visual rating about 3 weeks after treatment
Description: Seeds of monocotyledonous and dicotyledonous weeds and crop plants are placed in sandy loam in plastic or organic planting pots, covered with soil and cultivated in a greenhouse under controlled growth conditions. 2 to 3 weeks after sowing, the test plants are treated at the one-leaf stage. The compounds of the invention, formulated in the form of wettable powders (WP) or as emulsion concentrates (EC), are then sprayed onto the green parts of the plants as aqueous suspension or emulsion with addition of 0.5% additive at a water application rate of 600 l/ha (converted). After the test plants have been kept in the greenhouse under optimum growth conditions for about 3 weeks, the activity of the preparations is rated visually in comparison to untreated controls. For example, 100% activity=the plants have died, 0% activity=like control plants.
Tables B1 to B13 below show the effects of selected compounds of the general formula (I) according to Table 1 on various harmful plants and at an application rate corresponding to 320 g/ha or lower, which were obtained by the experimental procedure mentioned above. The appendices “a”, “b” and “c” give differentiation by dosage used with otherwise the same harmful plants tested.

[7] = tested on: Amaranthus retroflexus (AMARE); assay: Post-emergence herbicidal action against AMARE; details: 320 g/ha, visual rating about 3 weeks after treatment
How it was run: as §1

[8] = tested on: Abutilon theophrasti (ABUTH); assay: Post-emergence herbicidal action against ABUTH; details: 320 g/ha, visual rating about 3 weeks after treatment vs untreated controls (100% = plants have died, 0% = like control plants)
How it was run: as §1

[9] = 20 g/ha, effect vs untreated controls
[10] = 80 g/ha, effect in comparison to untreated controls

| SMILES | Post-emergence action against ECHCG in % ([1]; dosage 80 g/ha) [%] | Post-emergence action against ECHCG in % ([1]; dosage 320 g/ha) [%] | Post-emergence action against ORYSA in % (Oryza sativa (ORYSA); [9]) [%] | Post-emergence action against ORYSA in % (Oryza sativa (ORYSA); [10]) [%] | Post-emergence action against ZEAMX in % (crop plant compatibility) (Zea mays (ZEAMX)) [%] | Post-emergence action against ZEAMX in % (Zea mays (ZEAMX); 80 g/ha) [%] | Post-emergence action against VIOTR in % (Viola tricolor (VIOTR); 80 g/ha) [%] | Post-emergence action against VIOTR in % (Viola tricolor (VIOTR); 320 g/ha) [%] | Post-emergence action against POLCO in % ([2]; dosage 320 g/ha) [%] | Post-emergence action against VERPE in % ([3]; 320 g/ha, VERPE) [%] | Post-emergence action against VERPE in % ([3]; dosage 80 g/ha) [%] | Post-emergence action against SETVI in % (Setaria viridis (SETVI); dosage 320 g/ha) [%] | Post-emergence action against PHBPU in % ([4]; dosage 320 g/ha) [%] | Post-emergence action against ALOMY in % ([5]; 320 g/ha) [%] | Post-emergence action against AVEFA in % (Avena fatua (AVEFA); 80 g/ha) [%] | Post-emergence action against AVEFA in % (Avena fatua (AVEFA); 320 g/ha) [%] | Post-emergence action against LOLRI in % (Lolium rigidum (LOLRI); dosage 320 g/ha) [%] | Post-emergence action against DIGSA in % ([6]; 80 g/ha) [%] | Post-emergence action against DIGSA in % ([6]; 320 g/ha) [%] | further results |
| --- | --- | --- | --- | --- | --- | --- | --- | --- | --- | --- | --- | --- | --- | --- | --- | --- | --- | --- | --- | --- |
| COC(=O)C(C)COC(=O)COc1nn(-c2ncccc2F)c(-c2ccc(F)nc2)c1C1CC1 (centres unmarked) [Example I-382] | 80 | 90 | 0 | 10 | 0 | 20 | 80 | 90 | 80 | 80 | 80 | 90 | 80 | 90 | 90 | 90 | 90 | 80 | 90 | Post-emergence action against SETVI in % (Setaria viridis (SETVI); dosage 80 g/ha): 90%; Post-emergence action against PHBPU in % ([4]; dosage 80 g/ha): 80% |
| COC(=O)C(C)OC(=O)C(C)Oc1nn(-c2ccccn2)c(-c2ccc(F)nc2)c1Cl (centres unmarked) [Example I-299] | 80 | 90 | 10 | 20 | 0 | 10 | 80 | 90 | 80 | 80 | 80 | 90 | 90 | 90 | 80 | 80 | 80 | 80 | 90 | Post-emergence action against AMARE in % [7]: 80%; Post-emergence action against ALOMY in % ([5]; 80 g/ha): 80%; Post-emergence action against LOLRI in % (Lolium rigidum (LOLRI); dosage 80 g/ha): 80% |
| CCOC(=O)[C@@H](C)Oc1nn(-c2ncccc2F)c(-c2ccnc(F)c2)c1Br [Example I-133] | – | 90 | 0 | 10 | 0 | 0 | 80 | 90 | 80 | 80 | 80 | 80 | 80 | 90 | – | 80 | 90 | – | 80 | Post-emergence action against ZEAMX in % (Zea mays (ZEAMX); 320 g/ha): 20%; Post-emergence action against POLCO in % ([2]; dosage 80 g/ha): 80%; Post-emergence action against ABUTH in % [8]: 80% |
